The record followed here is patent publication US10682409B2, “Therapeutic treatment” (priority 2012, dated 2020).

In experiment [1] the test system is patients suffering from ADHD. Description: Clinical Global Impression-Severity scale (CGI-S), Patients A-H. Format: in vivo, human. The method, then:
In an embodiment, attentiveness is measured using the Clinical Global Impression rating scales to measure symptom severity, treatment response and the efficacy of treatments in treatment studies of patients with mental disorders (Guy, W., 1976). In an embodiment, attentiveness is measure using the Clinical Global Impression-Severity scale (“CGI-S”). In an embodiment, CGI-S is a 7-point scale that requires the clinician to rate the severity of the patient's illness at the time of assessment, relative to the clinician's past experience with patients who have the same diagnosis. Considering total clinical experience, a patient is assessed on severity of mental illness at the time of rating 1, normal, not at all ill; 2, borderline mentally ill; 3, mildly ill; 4, moderately ill; 5, markedly ill; 6, severely ill; or 7, extremely ill. In an embodiment, attentiveness is measured using the Clinical Global Impression-Improvement scale (“CGI-I”). […] In an embodiment, attentiveness is measured using the Clinical Global Impression-Efficacy Index (“CGI-E”).
The age range of the patients was from 6-15 years of age, with a mean age at the start of treatment for ADHD of 8.4 years of age. The mean age at the start of the combination treatment wherein the patient was administered an amphetamine or methylphenidate and an appetite stimulant was 10.3 years of age. The mean treatment period for the eight patients was 1,108 days with a mean of 2.55 ADHD medication changes during the treatment period. Attentiveness in the eight patients was measured using CGI-S and CGI-I. Patients weight and height velocity were measured to identify a difference in weight and height gain prior to and after addition of an appetite stimulant to the treatment for ADHD. Weight velocity was calculated by taking three time points, time 0 upon initiation of medication to treat ADHD, time 1 addition of an appetite stimulant, time 2 the last data point after initiation of combination treatment. The formula to calculate weight velocity for stimulant alone is (weightT1−weight T0)/days from Time 0 to time 1. The formula to calculate weight velocity for combination treatment is (weightT2−weight T1)/days from time 1 to time 2.

Experiment [2] in a line: Example 2 case study: child with ADHD on methylphenidate, then Periactin (height, weight, percentiles, attentiveness). Format: in vivo, human. The text has this: Case study: A child was presented by their parents for symptoms of attention deficit hyperactivity disorder. Their size at evaluation was 4′1¾″ and 50 lbs, corresponding to the 81st and 50th percentiles when compared to girls their age. […] At three months following the initiation of treatment for ADHD, the child was 4′2⅞″ and 50½ lbs, corresponding to the 85th and 34rd percentiles when compared to girls their age. At one year, they were 4′4⅜″ and 53 lbs, corresponding to the 84th and 36th percentiles when compared to girls their age. At two years they were 4′5¾″ and 54 lbs, corresponding to the 72nd and 17th percentiles when compared to girls their age. At four years of treatment they were 4′7⅜″ and 59 lbs, corresponding to 70th and 14th percentiles when compared to girls their age. At five years of treatment they were 4′9⅞″ and 64½ lbs, corresponding to 59th and 7th percentiles when compared to girls their age.
The child was then prescribed Periactin at a dosage of 2 mg b.i.d. to attempt to stimulate appetite. The dose was taken in the morning and then in the afternoon. After one year they were 4′11½″ and 72½ lbs, corresponding to 33rd and 5th percentiles when compared to girls their age. The child was then prescribed Periactin at a dose of 4 mg b.i.d. After two months on this dose, they were 5′¼″ and 76 lbs, corresponding to 37th and 8th percentiles when compared to girls their age. At 8 months on this dose, they were 5′½″ and 80 lbs, corresponding to 41st and 8th percentiles when compared to girls their age. At one year on this dose, they were 5′2¾″ and 89½ lbs, corresponding to 51st and 17th percentiles when compared to girls their age. At 18 months on this dose, they were 5′3⅝″ and 99½ lbs, corresponding to 56th and 30th percentiles when compared to girls their age. Additionally, the attentiveness of the child increase following the prescription of Periactin as they increased their food intake during the day.

The mark [3] stands for this setting: Periactin 2 mg b.i.d., after one year.
Setting [4] is: Periactin 4 mg b.i.d., 8 months.
[5] abbreviates: Periactin 4 mg b.i.d., 18 months.
The mark [6] stands for this setting: Periactin 4 mg b.i.d., one year.
[7] abbreviates: Periactin 4 mg b.i.d., two months.

In the case of `CN1CCC(=C2c3ccccc3C=Cc3ccccc32)CC1.Cl` [Periactin, 4-(5H-dibenzo[a,d]cyclohepten-5-ylidene)-1-methylpiperidine hydrochloride], the CGI-S score in experiment [1] (Patient A, Periactin 4 mg b.i.d. added to Concerta, FIG. 5) worked out at 3; in experiment [1] (Patient B, Focalin XR 15 mg and Periactin 4 mg b.i.d. (remained), FIG. 7) it was 3; in experiment [1] (Patient B, Focalin XR raised to 30 mg at day 1279 with Periactin, FIG. 7) it was 2; in experiment [1] (Patient C, Concerta 36 mg and Periactin 4 mg b.i.d., FIG. 9), 4; in experiment [1] (Patient D, Concerta 18 mg and Periactin 2 mg in the morning, FIG. 11) it was 5; in experiment [1] (Patient D, Concerta increased to 27 mg with Periactin, FIG. 11), 4. Further, the CGI-S score in experiment [1] (Patient E, Focalin XR 20 mg and Periactin 4 mg in the morning) was found to be 4; in experiment [1] (Patient E, Periactin dosed b.i.d. with Focalin XR), 3; in experiment [1] (Patient G, Focalin XR 15 mg and Periactin 4 mg b.i.d., FIG. 17), 3. In experiment [1] (Patient H, Vvyanase 40 mg and Periactin 2 mg b.i.d., day 200, FIG. 19), the “CGI-S score versus prior examination” value was “had not changed”. Also, in experiment [1] (Patients A-H, versus same patient prior to appetite stimulant, FIG. 20, 21), the “lowering of the CGI-S of a patient by addition of the appetite stimulant” value is on record as not below 1. Moreover, the “height percentile compared to girls their age” value is 33 percentile in experiment [2] (setting [3]); 41 percentile in experiment [2] (setting [4]); 56 percentile in experiment [2] (setting [5]); 51 percentile in experiment [2] (setting [6]); 37 percentile in experiment [2] (setting [7]). For the same molecule, the “weight percentile compared to girls their age” value is 5 percentile in experiment [2] (setting [3]); 8 percentile in experiment [2] (setting [4]); 30 percentile in experiment [2] (setting [5]); 17 percentile in experiment [2] (setting [6]); 8 percentile in experiment [2] (setting [7]). Moreover, the weight in experiment [2] (setting [4]) was found to be 80 lbs; in experiment [2] (setting [7]), 76 lbs. In experiment [2] (following the prescription of Periactin), the attentiveness result was “increase”.
